Patent US7718671B2, “Substituted arylthiourea derivatives useful as inhibitors of viral replication” (Achillion Pharmaceuticals, Inc., priority 2003, dated 2010)

test system: Hepatitis C replicon; test: HCV replicon assay (NPT level by captured ELISA in replicon-containing cells); assay type: cell-based; details: Hepatitis C virus, 72 h; Huh-7 HCV replicon-containing cells, three days incubation
Description: The compounds claimed herein were tested for the ability to inhibit viral replication of the Hepatitis C replicon in cultured cells in which the HCV replicon construct has been incorporated. The HCV replicon system was described by Bartenschlager, et. al (Science, 285, pp. 110-113 (1999)). The replicon system is predictive of in vivo anti-HCV activity; compounds that are active in humans uniformly evidence activity in the replicon assay.
HCV replicon-containing cells are treated with different concentrations of interferon alpha, a known inhibitor of HCV replication, as a positive control and with different concentrations of the test compound. The replicon assay system includes Neomycin Phosphotransferase (NPT) as a component of the replicon itself in order to detect the transcription of replicon gene products in the host cell. Cells in which the HCV is actively replicating have high levels of NPT; the level of NPT is proportional to HCV replication. […] The NPT level of each sample is measured using a captured ELISA.
A protocol for testing compounds for the ability to inhibit viral replication of the Hepatitis C replicon cultured cells in which the replicon construct has been incorporated, follows.
9A. HCV Replicon and Replicon Expression
The HCV genome consists of a single ORF that encodes a 3000 amino acid polyprotein. The ORF is flanked on the 5′ side by an untranslated region that serves as an internal ribosome entry site (IRES) and at the 3′ side by a highly conserved sequence necessary for viral replication (3′-NTR). The structural proteins, necessary for viral infection, are located near the 5′ end of the ORF. The non-structural proteins, designated NS2 to NS5B comprise the remainder of the ORF.
The HCV replicon contains, 5′-3′, the HCV-IRES, the neomycin phosphotransferase (neo) gene, the IRES of encephalomyocarditis virus, which directs translation of HCV sequences NS3 to NS5B, and the 3′-NTR. The sequence of the HCV replicon has been deposited in GenBank (Accession no. AJ242652).
The replicon is transfected into Huh-7 cells using standard methods such as electroporation.
The equipment and materials include, but are not limited to, Huh-7 HCV replicon-containing cells, maintenance media (DMEM (Dulbecco's modified Eagle media) supplemented with 10% FBS, L-glutamine, non-essential amino acids, penicillin (100 units/ml), streptomycin (100 micrograms/ml), and 500 micrograms/ml of Geneticin G418), screening media (DMEM supplemented with 10% FBS, L-glutamine, and non-essential amino acid, penicillin (100 units/ml) and streptomycin (100 micrograms/ml)), 96 well tissue culture plates (flat bottom), 96 well plates (U bottom for drug dilution), Interferon alpha for positive control, fixation reagent (such as methanol: acetone), primary antibody (rabbit anti-NPTII), secondary antibody: Eu—N1l, and enhancement solution.
HCV replicon-containing cells support high levels of viral RNA replicon replication when their density is suitable. Over confluency will cause a decrease of viral RNA replication. Therefore, cells must be kept growing in log phase in the presence of 500 micrograms/ml of G418. Generally, cells should be passed twice a week at 1: 4-6 dilution. Cell maintenance is conducted as follows:
HCV replicon-containing cells are examined under a microscope to ensure that cells growing well. Cells are rinsed once with PBS and 2 ml trypsin is added. The cell/trypsin mixture is incubated at 37° C. in a CO2 incubator for 3-5 minutes. After incubation 10 ml of complete media is added to stop the trypsinization reaction. Cells are blown gently, put into a 15 ml tube, and spun at 1200 rpm for 4 minutes. The trypsin/medium solution is removed. Medium (5 ml) is added and the cells are mixed carefully. The cells are counted.
The cells are then seeded onto 96-well plates at a density of 6000-7500 cells/100 ul/well (6-7.5×10^5 cells/10 ml/plate). The plates are then incubated at 37° C. in a 5% CO2 incubator. […]

SMILES | EC50
CCCCCCCOc1ccc(NC(N)=S)cc1C(F)(F)F [Compound 39, 1-(4-(heptyloxy)-3-(trifluoromethyl)phenyl)thiourea] | < 1000 nM
COc1cccc(Cc2cccc(NC(N)=S)c2)c1 [Compound 35, 1-(3-(3-methoxybenzyl)phenyl) thiourea] | < 1000 nM
NC(=S)Nc1ccc(N2CCc3ccccc3C2)cc1 [Compound 25, 1-(4-(3,4-dihydro-isoquinolin-2(1H)-yl)phenyl)thiourea] | < 1000 nM
NC(=S)Nc1ccc(N2CCC3CCCCC3C2)cc1 (stereo not drawn) [Compound 26, 1-(4-(octahydroisoquinolin-2(1H)-yl)phenyl)thiourea] | < 1000 nM
NC(=S)Nc1cccc(Cc2ccccc2)c1 [Compound 5, 1-(3-Benzyl-phenyl)-thiourea] | < 1000 nM
NC(=S)Nc1cccc(OCc2ccc(-c3ccccc3)cc2)c1 [Compound 15, 1-(3-(4-phenylbenzyloxy)phenyl)thiourea] | < 1000 nM
NC(=S)NCc1ccc(Oc2ccccc2)cc1 [Compound 55, 1-(4-phenoxybenzyl)thiourea] | < 1000 nM
NC(=S)Nc1cccc(OCc2cccc(C(F)(F)F)c2)c1 [Compound 53, 1-(3-(3-(trifluoromethyl)benzyloxy)phenyl)thiourea] | < 1000 nM
CCCCCOc1ccc(NC(N)=S)cc1F [Compound 12, 1-(3-Fluoro-(4-Pentyloxy)-phenyl)-thiourea] | < 1000 nM
NC(=S)Nc1cccc(OC2Cc3ccccc3C2)c1 [Compound 13, 1-(3-(indan-2-yloxy)phenyl)thiourea] | < 1000 nM
NC(=S)Nc1cccc(NCC2CCCCC2)c1 [Compound 52, 1-(3-(cyclohexylmethylamino)phenyl)thiourea] | < 1000 nM
NC(=S)Nc1ccc2c(c1)OC(c1ccccc1)O2 (stereo not drawn) [Compound 19, 1-(2-phenylbenzo[d]-[1,3]dioxol-6-yl)thiourea] | < 1000 nM
NC(=S)Nc1ccc(-c2ccccc2)cc1 [Compound 23, 1-(4-(phenyl)phenyl)thiourea] | < 1000 nM
CCCCCc1ccc(NC(N)=S)cc1 [Compound 7, 1-(4-Pentyl-phenyl)-thiourea] | < 1000 nM
CCCCCOc1ccc(NC(N)=S)cc1 [Compound 6, 1-(4-Pentyloxy-phenyl)-thiourea] | < 1000 nM
NC(=S)NCc1cccc(-c2ccccc2)c1 [Compound 56, 1-(3-phenylbenzyl)thiourea] | < 1000 nM
NC(=S)Nc1ccc(N2CCC(c3ccccc3)CC2)c(F)c1 [Compound 54, 1-(3-fluoro-4-(4-phenylpiperidin-1-yl)phenyl)thiourea] | < 1000 nM

SMILES | EC50
NC(=S)Nc1ccc(OCc2ccccc2)cc1 [Compound 28, 1-(4-(benzyloxy)phenyl)thiourea] | < 1000 nM
CCCCCCC12CCC(c3ccc(NC(N)=S)cc3)(CC1)CC2 [Compound 30, 1-(4-(4-hexylbicyclo[2.2.2]octan-1-yl)phenyl)thiourea] | < 1000 nM
NC(=S)Nc1ccc(N2CCc3ccccc3C2)c(F)c1 [Compound 24, 1-(3-fluoro-4-(3,4-dihydro-isoquinolin-2(1H)-yl)phenyl)thiourea] | < 1000 nM
NC(=S)Nc1cccc(-c2ccccc2)c1 [Compound 22, 1-(3-(phenyl)phenyl)thiourea] | < 1000 nM
NC(=S)NCc1ccc(-c2ccccc2)cc1 [Compound 57, 1-(4-phenylbenzyl)thiourea] | < 1000 nM
NC(=S)Nc1cccc(OCc2ccc(F)c(F)c2)c1 [Compound 14, 1-(3-(3,4-difluorobenzyloxy)phenyl)thiourea] | < 1000 nM
C[C@@H](Oc1cccc(NC(N)=S)c1)c1ccccc1 [Compound 20, 1-(3-((R)-1-phenylethoxy)phenyl)thiourea] | < 1000 nM
NC(=S)Nc1cccc(OCCc2ccccc2)c1 [Compound 21, 1-(3-(phenethyloxy)phenyl)thiourea] | < 1000 nM
CCCCc1ccc(CNC(N)=S)cc1 [Compound 59, 1-(4-butylbenzyl)thiourea] | < 1000 nM
CCCCCC[C@H]1CC[C@H](c2ccc(NC(N)=S)cc2)CC1 [Compound 29, 1-(4-((1s,4r)-4-hexylcyclohexyl)phenyl)thiourea] | < 1000 nM
CCCCC#Cc1ccc(NC(N)=S)cc1 [Compound 33, 1-(4-(hex-1-ynyl)phenyl)thiourea] | < 1000 nM
C[C@H](Oc1cccc(NC(N)=S)c1)c1ccccc1 [Compound 16, 1-(3-((S)-1-phenylethoxy)phenyl)thiourea] | < 1000 nM
Cc1cc(NC(N)=S)ccc1N1CCCCC1 [Compound 51, 1-(3-(methyl)-4-(piperidin-1-yl)phenyl)thiourea] | < 1000 nM
CCC[C@H]1CC[C@H](c2ccc(NC(N)=S)cc2)CC1 [Compound 31, 1-(4-((1s,4r)-4-propylcyclohexyl)phenyl)thiourea] | < 1000 nM
NC(=S)Nc1cccc(Oc2ccccc2)c1 [Compound 3, 1-(3-Phenoxy-phenyl)-thiourea] | < 1000 nM
NC(=S)Nc1ccc(N2CCCCC2)c(C(F)(F)F)c1 [Compound 32, 1-(3-(trifluoromethyl)-4-(piperidin-1-yl)phenyl)thiourea] | < 1000 nM
